Assay results from patent publication US12492173B2, “Herbicidal substituted N-tetrazolyl aryl carboxamides” (Bayer Aktiengesellschaft, priority 2019, dated 2025).

Experiments:
Type in all cases: in vivo
[1] = system: Amaranthus retroflexus; assay: Pre-emergence herbicidal action, AMARE; settings: dosage 320 g/ha, scored visually after 3 weeks vs untreated controls (100% = plants have died)
How it was run: (§1)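 Herbicidal activity is expressed in percent, scored by eye after a 3-week greenhouse period, with 0% matching untreated plants and 100% meaning death. Compounds, as wettable powders or emulsion concentrates, are applied pre-emergence to the covering soil.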

[2] = system: Matricaria inodora; assay: Post-emergence herbicidal action, MATIN; parameters: key: % herbicidal action vs untreated; 100 = plants died, 0 = like control
How it was run: (§2)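 WP or EC formulations, diluted in water at 600 to 800 l/ha with 0.2% wetting agent, are sprayed onto green parts of one-leaf-stage plants grown in sandy loam. Visual assessment of percent damage relative to untreated controls follows after approximately 3 weeks in the greenhouse.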

[3] = system: Setaria viridis; assay: Pre-emergence herbicidal action, SETVI; settings: dosage 320 g/ha, scored visually after 3 weeks vs untreated controls (100% = plants have died)
How it was run: as §1

[4] = system: Pharbitis purpurea; assay: Pre-emergence herbicidal action, PHBPU; settings: dosage 320 g/ha, scored visually after 3 weeks vs untreated controls (100% = plants have died)
How it was run: as §1

[5] = system: Avena fatua; assay: Post-emergence herbicidal action, AVEFA; parameters: key: % herbicidal action vs untreated; 100 = plants died, 0 = like control
How it was run: as §2

[6] = system: Polygonum convolvulus; assay: Post-emergence herbicidal action, POLCO
How it was run: as §2

Row | SMILES | herbicidal activity AMARE [1] [%] | herbicidal action MATIN ([2]; post-emergence, dosage 80 g/ha) [%] | herbicidal activity SETVI [3] [%] | herbicidal activity PHBPU [4] [%] | herbicidal action AVEFA ([5]; post-emergence, dosage 80 g/ha) [%] | herbicidal action POLCO ([6]; post-emergence, dosage 80 g/ha) [%] | herbicidal action MATIN ([2]; Dosage 80 g/ha) | herbicidal action AVEFA ([5]; Dosage 80 g/ha) | herbicidal action POLCO ([6]; Dosage 80 g/ha)
1 | CCn1nnnc1NC(=O)c1ccc(C(F)(F)F)c(CSCCOC)c1Cl [Example 2-305] | 100 | 100 | 100 | 100 | 80 | 100 |  |  | 
2 | CCn1nnnc1NC(=O)c1ccc(C(F)(F)F)c(C[S+]([O-])CC2CC2)c1Cl (stereo not drawn) [Example 2-315] | 100 |  | 100 | 90 |  |  | 90 | 90 | 100
3 | CCn1nnnc1NC(=O)c1ccc(C(F)F)c(CS(C)(=O)=O)c1Cl [Example 2-322] | 100 | 90 | 100 | 100 | 80 | 100 |  |  | 
4 | CCSCc1c(C(F)F)ccc(C(=O)Nc2nnnn2CC)c1Cl [Example 2-323] | 100 | 90 | 100 | 90 | 100 | 100 |  |  | 
5 | CCn1nnnc1NC(=O)c1ccc(C(F)F)c(C[S+]([O-])CC)c1Cl (stereo not drawn) [Example 2-324] | 100 | 100 | 100 | 100 | 100 | 100 |  |  | 
6 | CCn1nnnc1NC(=O)c1ccc(C(F)F)c(CS(=O)(=O)CC)c1Cl [Example 2-325] | 100 |  | 100 | 100 |  |  | 80 | 90 | 90
7 | CCn1nnnc1NC(=O)c1ccc(I)c(C[S+](C)[O-])c1Cl (stereo not drawn) [Example 2-363] | 100 |  | 100 | 80 |  |  | 100 | 90 | 100
8 | CCn1nnnc1NC(=O)c1ccc(C(F)(F)F)c(C[S+]([O-])CC)c1Br (stereo not drawn) [Example 2-384] | 100 | 100 | 100 | 90 | 90 | 80 |  |  | 
9 | CCn1nnnc1NC(=O)c1ccc(C(F)(F)F)c(CS(=O)(=O)CC)c1Br [Example 2-385] | 100 | 100 | 100 | 80 | 90 | 90 |  |  | 
10 | CCCn1nnnc1NC(=O)c1ccc(C(F)(F)F)c(C[S+](C)[O-])c1SC (stereo not drawn) [Example 3-162] | 100 | 100 | 100 | 90 | 90 | 100 |  |  | 
11 | CCCn1nnnc1NC(=O)c1ccc(C(F)(F)F)c(CS(C)(=O)=O)c1SC [Example 3-163] | 100 |  | 100 | 80 |  |  | 90 | 90 | 90
12 | CCCn1nnnc1NC(=O)c1ccc(C(F)F)c(CSC)c1SC [Example 3-170] | 100 |  | 100 | 80 |  |  | 100 | 80 | 90
13 | CCCn1nnnc1NC(=O)c1ccc(C(F)(F)F)c(CS(C)(=O)=O)c1Cl [Example 3-298] | 100 |  | 100 | 90 |  |  | 100 | 100 | 90
14 | CCCn1nnnc1NC(=O)c1ccc(C(F)(F)F)c(CSCC2CC2)c1Cl [Example 3-314] | 100 | 100 | 100 | 80 | 100 | 100 |  |  | 
15 | CCCn1nnnc1NC(=O)c1ccc(C(F)F)c(CS(C)(=O)=O)c1Cl [Example 3-322] | 100 |  | 100 | 90 |  |  | 90 | 80 | 80
16 | CCCn1nnnc1NC(=O)c1ccc(C(F)F)c(CSCC)c1Cl [Example 3-323] | 100 |  | 100 | 100 |  |  | 90 | 90 | 80
17 | CCCn1nnnc1NC(=O)c1ccc(C(F)(F)F)c(C[S+]([O-])CC)c1Br (stereo not drawn) [Example 3-384] | 100 |  | 100 | 90 |  |  | 100 | 90 | 90
